From ChEMBL document CHEMBL4229359, “Simple 2(5H)-furanone derivatives with selective cytotoxicity towards non-small cell lung cancer cell line A549 - Synthesis, structure-activity relationship and biological evaluation” (Eur J Med Chem, 2018)
Activity calls are given as the source filed them. The calls are words filed in the database; no cut-off is given here.

How the values were obtained:
A549 [1] = test: Cytotoxicity against human A549 cells assessed as reduction in cell viability after 72 hrs by MTT assay; assay type: functional, cell-based; details: A549, 72 h
[2] = Selectivity index, ratio of IC50 for human BEAS2B cells to IC50 for human A549 cells; assay type: toxicity
BEAS-2B = test: Cytotoxicity against human BEAS2B cells assessed as reduction in cell viability after 72 hrs by MTT assay; assay type: cell-based
A549 [3] = test: Induction of apoptosis in human A549 cells assessed as early apoptotic cells at 20 uM after 72 hrs by Annexin V-FITC/propidium iodide staining based flow cytometry (reference value: 0.4%); assay type: functional
A549 [4] = test: Cell cycle arrest in human A549 cells assessed as accumulation at S-phase at 10 uM after 72 hrs by propidium iodide staining based flow cytometry (reference value: 16.8 to 18.5%); assay type: functional
A549 [5] = test: Effect on Bcl2 protein expression in human A549 cells at 20 uM after 72 hrs by densitometric analysis; assay type: functional, cell-based
HCT-116 [6] = test: Cytotoxicity against human HCT116 cells assessed as reduction in cell viability after 72 hrs by MTT assay; assay type: functional, cell-based; details: HCT-116, 72 h
MCF7 = test: Cytotoxicity against human MCF7 cells assessed as reduction in cell viability after 72 hrs by MTT assay; assay type: functional, cell-based; details: MCF7, 72 h
DU-145 = test: Cytotoxicity against human DU145 cells assessed as reduction in cell viability after 72 hrs by MTT assay; assay type: functional, cell-based; details: DU-145, 72 h
A549 [7] = test: Cell cycle arrest in human A549 cells assessed as accumulation at G1-phase at 10 uM after 24 hrs by propidium iodide staining based flow cytometry (reference value: 59.4%); assay type: functional
A549 [8] = test: Effect on Bax protein expression in human A549 cells at 20 uM after 72 hrs by densitometric analysis; assay type: functional, cell-based
A549 [9] = test: Cell cycle arrest in human A549 cells assessed as accumulation at G2/M-phase at 10 uM after 72 hrs by propidium iodide staining based flow cytometry (reference value: 6.3 to 7.2%); assay type: functional
A549 [10] = test: Induction of apoptosis in human A549 cells assessed as late apoptotic cells at 20 uM after 72 hrs by Annexin V-FITC/propidium iodide staining based flow cytometry (reference value: 0.5%); assay type: functional
A549 [11] = test: Upregulation of Cyclin-B1 protein expression in human A549 cells at 10 uM after 72 hrs by Western blot analysis; assay type: functional, cell-based
A549 [12] = test: Cell cycle arrest in human A549 cells assessed as accumulation at G1-phase at 20 uM after 72 hrs by propidium iodide staining based flow cytometry (reference value: 61.5%); assay type: functional
LoVo = test: Cytotoxicity against human LoVo cells assessed as reduction in cell viability after 72 hrs by MTT assay; assay type: functional, cell-based
A549 [13] = test: Induction of apoptosis in human A549 cells assessed as caspase-3 cleavage at 20 uM after 72 hrs by Western blot analysis; assay type: functional, cell-based
A549 [14] = test: Cell cycle arrest in human A549 cells assessed as accumulation at S-phase at 10 uM after 24 hrs by propidium iodide staining based flow cytometry (reference value: 34.1%); assay type: functional
Hep 3B2 = test: Cytotoxicity against human Hep3B cells assessed as reduction in cell viability after 72 hrs by MTT assay; assay type: functional, cell-based
A549 [15] = test: Effect on Bcl-x protein expression in human A549 cells at 20 uM after 72 hrs by densitometric analysis; assay type: functional, cell-based
PC-3 = test: Cytotoxicity against human PC3 cells assessed as reduction in cell viability after 72 hrs by MTT assay; assay type: functional, cell-based; details: PC-3, 72 h
A549 [16] = test: Cell cycle arrest in human A549 cells assessed as accumulation at G2/M-phase at 10 uM after 24 hrs by propidium iodide staining based flow cytometry (reference value: 6.5%); assay type: functional
A549 [17] = test: Effect on Bad protein expression in human A549 cells at 20 uM after 72 hrs by densitometric analysis; assay type: functional, cell-based
HCT-116 [18] = test: Cytotoxicity against p53-/- human HCT116 cells assessed as reduction in cell viability after 72 hrs by MTT assay; assay type: functional, cell-based; details: HCT-116, 72 h
HT-29 = test: Cytotoxicity against human HT-29 cells assessed as reduction in cell viability after 72 hrs by MTT assay; assay type: functional, cell-based; details: HT-29, 72 h
A549 [19] = test: Induction of apoptosis in human A549 cells assessed as necrotic cells at 20 uM after 72 hrs by Annexin V-FITC/propidium iodide staining based flow cytometry (reference value: 0.6%); assay type: functional
SJSA-1 = test: Cytotoxicity against human SJSA1 cells assessed as reduction in cell viability after 72 hrs by MTT assay; assay type: functional, cell-based; details: SJSA-1, 72 h
A549 [20] = test: Anticlonogenic activity against human A549 cells at 10 uM after 24 to 72 hrs by crystal violet staining based microscopic method; assay type: functional, cell-based
U2OS = test: Cytotoxicity against human U2OS cells assessed as reduction in cell viability after 72 hrs by MTT assay; assay type: functional, cell-based
A549 [21] = test: Cell cycle arrest in human A549 cells assessed as accumulation at G2/M-phase at 20 uM after 72 hrs by propidium iodide staining based flow cytometry (reference value: 6.7%); assay type: functional
A549 [22] = test: Induction of apoptosis in human A549 cells assessed as live cells at 20 uM after 72 hrs by Annexin V-FITC/propidium iodide staining based flow cytometry (reference value: 98.5%); assay type: functional
A549 [23] = test: Cell cycle arrest in human A549 cells assessed as accumulation at S-phase at 20 uM after 72 hrs by propidium iodide staining based flow cytometry (reference value: 31.9%); assay type: functional
A549 [24] = test: Effect on cleaved caspase-3 protein expression in human A549 cells at 20 uM after 72 hrs by densitometric analysis; assay type: functional, cell-based
A549 [25] = test: Cell cycle arrest in human A549 cells assessed as accumulation at G1-phase at 10 uM after 72 hrs by propidium iodide staining based flow cytometry (reference value: 75.2 to 76%); assay type: functional
HepG2 = test: Cytotoxicity against human HepG2 cells assessed as reduction in cell viability after 72 hrs by MTT assay; assay type: functional, cell-based; details: HepG2, 72 h
A549 [26] = test: Effect on Pro-caspase-3 protein expression in human A549 cells at 20 uM after 72 hrs by densitometric analysis; assay type: functional, cell-based

CCCCOC1OC(=O)C(Cl)=C1N1CCCCC1 (stereo unspecified)
IC50 (A549 [1]): 93.3 µM | log(RatioIC50) [2]: 0.27 | IC50 (BEAS-2B): 172 µM

CCCCOC1OC(=O)C(Cl)=C1Nc1ccc(F)cc1 (stereo unspecified)
IC50 (A549 [1]): 78.5 µM | log(RatioIC50) [2]: 0.19 | IC50 (BEAS-2B): 122 µM

CC(C)(C)COC1OC(=O)C(Cl)=C1Nc1ccc(Cl)cc1 (stereo unspecified)
IC50 (A549 [1]): 13.3 µM | log(RatioIC50) [2]: 0.36 | IC50 (BEAS-2B): 30.3 µM

CC(C)(C)COC1OC(=O)C(Cl)=C1Cl (stereo unspecified)
Activity (A549 [3]): 4.2% | Activity (A549 [4]): 17.6% | Activity (A549 [5]): inactive | IC50 (HCT-116 [6]): 7.2 µM | IC50 (MCF7): 11.2 µM | IC50 (DU-145): 26.8 µM | Activity (A549 [7]): 62.1% | IC50 (A549 [1]): 7.7 µM | Activity (A549 [8]): inactive | log(RatioIC50) [2]: 0.88 | Activity (A549 [9]): 8.4% | Activity (A549 [10]): 16.1% | Activity (A549 [11]): inactive | Activity (A549 [12]): 51.2% | IC50 (LoVo): 7.3 µM | Activity (A549 [13]): inactive | Activity (A549 [14]): 32.6% | IC50 (Hep 3B2): 27.8 µM | Activity (A549 [15]): inactive | IC50 (PC-3): 6 µM | Activity (A549 [16]): 5.3% | Activity (A549 [17]): inactive | IC50 (HCT-116 [18]): 6.2 µM | IC50 (HT-29): 7.2 µM | IC50 (BEAS-2B): 59 µM | Activity (A549 [19]): 2.3% | IC50 (SJSA-1): 11.1 µM | Activity (A549 [20]): Active | IC50 (U2OS): 38.1 µM | Activity (A549 [21]): 8% | Activity (A549 [22]): 77.7% | Activity (A549 [23]): 40.8% | Activity (A549 [24]): inactive | Activity (A549 [25]): 74% | IC50 (HepG2): 17.6 µM | Activity (A549 [26]): inactive

CCCOC1OC(=O)C(Cl)=C1Cl (stereo unspecified)
IC50 (A549 [1]): 3.6 µM | log(RatioIC50) [2]: -0.02 | IC50 (BEAS-2B): 3.5 µM

CC(C)(C)COC1OC(=O)C(Cl)=C1Nc1ccccc1 (stereo unspecified)
IC50 (A549 [1]): 76.2 µM | log(RatioIC50) [2]: 0 | IC50 (BEAS-2B): 76.2 µM

CCCCOC1OC(=O)C(Cl)=C1Nc1ccc(Cl)cc1 (stereo unspecified)
IC50 (A549 [1]): 58.1 µM | log(RatioIC50) [2]: 0.02 | IC50 (BEAS-2B): 60.8 µM

CCOC1OC(=O)C(Cl)=C1Cl (stereo unspecified)
IC50 (A549 [1]): 6.3 µM | log(RatioIC50) [2]: 0.22 | IC50 (BEAS-2B): 3.8 µM

CC(C)OC1OC(=O)C(Cl)=C1Nc1ccc(Br)cc1 (stereo unspecified)
IC50 (A549 [1]): 95.9 µM | log(RatioIC50) [2]: 0.32 | IC50 (BEAS-2B): 202 µM

CC(C)(C)OC1OC(=O)C(Cl)=C1Cl (stereo unspecified)
IC50 (A549 [1]): 14 µM | log(RatioIC50) [2]: 0.22 | IC50 (BEAS-2B): 23.1 µM

O=C1OC(O)C(Cl)=C1Cl (stereo unspecified) [MUCOCHLORIC ACID]
Activity (A549 [3]): 0.3% | Activity (A549 [4]): 18.8% | Activity (A549 [5]): inactive | IC50 (HCT-116 [6]): 8.3 µM | IC50 (MCF7): 32.3 µM | IC50 (DU-145): 130 µM | Activity (A549 [7]): 58.7% | IC50 (A549 [1]): 123 µM | Activity (A549 [8]): inactive | log(RatioIC50) [2]: -0.44 | Activity (A549 [9]): 7.2% | Activity (A549 [10]): 0.3% | Activity (A549 [11]): inactive | Activity (A549 [12]): 64.2% | IC50 (LoVo): 17.2 µM | Activity (A549 [13]): inactive | Activity (A549 [14]): 33.3% | IC50 (Hep 3B2): 85.1 µM | Activity (A549 [15]): inactive | IC50 (PC-3): 24.7 µM | Activity (A549 [16]): 8% | Activity (A549 [17]): inactive | IC50 (HCT-116 [18]): 10.8 µM | IC50 (HT-29): 21.8 µM | IC50 (BEAS-2B): 45 µM | Activity (A549 [19]): 0.8% | IC50 (SJSA-1): 39.4 µM | Activity (A549 [20]): inactive | IC50 (U2OS): 58.5 µM | Activity (A549 [21]): 6.9% | Activity (A549 [22]): 98.6% | Activity (A549 [23]): 29% | Activity (A549 [24]): inactive | Activity (A549 [25]): 74% | IC50 (HepG2): 111 µM | Activity (A549 [26]): inactive

CC(C)OC1OC(=O)C(Cl)=C1N1CCCCC1 (stereo unspecified)
IC50 (A549 [1]): > 400 µM | IC50 (BEAS-2B): > 400 µM
